The results in this text go back to article PMC5259778, “Candidate pheromone receptors of codling moth Cydia pomonella respond to pheromones and kairomones” (Scientific Reports, 2017).

For one assay, the target named is T1, CpomOrco + OR3 (Cydia pomonella, UniProt H9A5M3).
T1 sequence (H9A5M3 1-426): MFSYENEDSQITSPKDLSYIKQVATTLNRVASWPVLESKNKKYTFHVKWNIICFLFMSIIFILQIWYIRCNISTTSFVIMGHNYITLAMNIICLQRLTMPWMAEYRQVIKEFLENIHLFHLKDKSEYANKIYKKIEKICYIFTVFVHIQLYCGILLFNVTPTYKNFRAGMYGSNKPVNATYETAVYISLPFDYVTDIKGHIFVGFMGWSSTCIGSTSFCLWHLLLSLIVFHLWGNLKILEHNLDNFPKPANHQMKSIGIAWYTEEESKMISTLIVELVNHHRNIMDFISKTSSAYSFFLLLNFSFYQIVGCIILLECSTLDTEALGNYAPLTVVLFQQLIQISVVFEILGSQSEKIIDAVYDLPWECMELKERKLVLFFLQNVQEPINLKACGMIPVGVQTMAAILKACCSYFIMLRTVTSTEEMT
T1 sequence (H9A5M2 1-473 partner): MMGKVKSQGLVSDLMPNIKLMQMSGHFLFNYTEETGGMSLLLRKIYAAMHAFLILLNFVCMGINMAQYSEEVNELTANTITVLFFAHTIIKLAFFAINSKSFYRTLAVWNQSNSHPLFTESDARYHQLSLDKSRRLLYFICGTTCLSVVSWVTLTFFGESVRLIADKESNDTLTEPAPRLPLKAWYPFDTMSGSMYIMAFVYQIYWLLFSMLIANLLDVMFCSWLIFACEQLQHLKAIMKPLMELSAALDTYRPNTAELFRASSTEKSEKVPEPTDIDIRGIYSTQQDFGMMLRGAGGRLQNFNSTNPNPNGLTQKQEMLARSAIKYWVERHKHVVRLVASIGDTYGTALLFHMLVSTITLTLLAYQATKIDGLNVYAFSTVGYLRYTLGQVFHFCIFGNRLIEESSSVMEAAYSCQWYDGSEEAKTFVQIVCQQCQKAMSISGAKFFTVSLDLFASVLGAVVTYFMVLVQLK
Description: Calcium imaging of HEK293T cells expressing CpomOrco + OR3. The class given is cell-based. The settings on record: for amplitude of the calcium response (mean of the maximum response ± SEM): 500 μM, n = 151; for EC50: calcium response normalized to 250 μM VUAA3.

In a further assay the test system is CpomOR6a. Description: Single sensillum recordings, CpomOR6a expressed in Drosophila at1 OSNs. The class given is cell-based, Cydia pomonella. The settings on record: 10 μg per stimulus. From the text:
(§1) To perform heterologous expression in D. melanogaster OSNs, CpomORs were amplified using primers in Table 2 and purified PCR products were cloned into the PCR8/GW/TOPO plasmid (Invitrogen) following the recommended protocol. Cassettes with inserts were then transferred from their PCR8/GW/TOPO plasmids to the destination vector (pUASg-HA.attB, constructed by E. Furger and J. Bischof, kindly provided by the Basler group, Zürich), using the Gateway LR Clonase II kit (Invitrogen). The integrity and orientation of inserts was confirmed by sequencing (Sanger sequencer, 3730xl). Transformant UAS-CpomOR3 and UAS-CpomOR1 lines were generated by Best Gene (Chino Hills, CA, USA), using the PhiC31 integrase system, while the transformant UAS-CpomOR6a line was generated in our labs. Briefly, recombinant pUASg-HA.attB-CpomOR plasmids were injected into embryos of a D. melanogaster line containing an attP insertion site within the third chromosome (genotype y1 M{vas-int.Dm}ZH-2A w*; M{3xP3-RFP.attP}ZH-86Fb), leading to non-random integration. To drive expression of CpomORs in at1 OSNs in place of the endogenous receptor Or67d, transformant UAS-CpomOR lines were crossed to the knock-in Or67d^GAL4 line (kindly provided by Barry Dickson) to generate double homozygous lines w^+;UAS-CpomOR; Or67d^GAL4. Additionally, to drive expression of CpomOR3 in ab3A OSNs, the UAS-CpomOR3 line was crossed to the Δhalo;Or22a-Gal4 mutant line[20][57]. To verify insertion of UAS-CpomORs constructs into the genome, gDNA was extracted and used as template in PCR with primers for the full ORF of CpomORs (Table 2).
(§2) CpomOR1 and CpomOR6a expressed in at1 OSNs, and CpomOR3 expressed in ab3A OSNs, were tested through single sensillum recordings (SSR). Three to 8-day-old flies were immobilized in 100 μL pipette tips with only the top half of the head protruding. The left antenna of each insect was gently pushed with a glass capillary against a double-sided adhesive tape placed on a piece of glass. This piece of glass and the pipette tip were fixed with dental wax on a microscope slide. Electrolytically sharpened tungsten electrodes (Harvard Apparatus Ltd, Edenbridge, United Kingdom) were used to penetrate the insect´s body. The reference electrode was manually inserted in the right eye of the fly, while the recording electrode was manoeuvred with a DC-3K micromanipulator equipped with a PM-10 piezo translator (Märzhäuser Wetzler GmbH, Wetzler, Germany) and inserted at the base of the determined sensilla. Signals coming from the olfactory sensory neurons were amplified 10 times with a probe (INR-02, Syntech, Hilversum, the Netherlands), digitally converted through an IDAC-4-USB (Syntech) interface, and visualized and analysed with the software Autospike v. 3.4 (Syntech). A constant flow of 0.65 m/s of humidified air (charcoal-filtered) was delivered through a glass tube to the antenna. The panel of odorants was given to the insect by inserting pipettes containing a piece of filter paper with the correspondent stimulus in a lateral hole of the glass tube and puffing a flow of 2.5 mL of air during 0.5 s through the pipette. For CpomOR1 and CpomOR6a the panel of odorants was prepared by applying 10 μL of a solution of 1.0 μg/μL of the compounds in Supplementary Dataset S2 and Supplementary Dataset S3, for a total amount of 10 μg per stimulus. In the case of CpomOR3, a similar dilution process was used for the dose response experiments of ethyl-(E,Z)-2,4-decadienoate and methyl-(E,Z)-2,4-decadienoate, as well for dose response of experiments of codlemone acetate in CpomOR6a. Compounds were diluted from concentrations ranging from 0.01 ng/μL to 10 μg/μL in decadic steps, allowing reaching concentrations from 100 pg to 100 μg per stimulus when 10 μL of the dilution was applied in the piece of filter paper. […]

For the next assay, the system named is CpomOR3. The assay can be described thus: Single sensillum recordings, CpomOR3 expressed in Drosophila ab3A OSNs. The class given is cell-based, Cydia pomonella. The note with it: dose loaded in the stimulus cartridge. From the text:
To perform heterologous expression in D. melanogaster OSNs, CpomORs were amplified using primers in Table 2 and purified PCR products were cloned into the PCR8/GW/TOPO plasmid (Invitrogen) following the recommended protocol. Cassettes with inserts were then transferred from their PCR8/GW/TOPO plasmids to the destination vector (pUASg-HA.attB, constructed by E. Furger and J. Bischof, kindly provided by the Basler group, Zürich), using the Gateway LR Clonase II kit (Invitrogen). The integrity and orientation of inserts was confirmed by sequencing (Sanger sequencer, 3730xl). […]
CpomOR1 and CpomOR6a expressed in at1 OSNs, and CpomOR3 expressed in ab3A OSNs, were tested through single sensillum recordings (SSR). […] The reference electrode was manually inserted in the right eye of the fly, while the recording electrode was manoeuvred with a DC-3K micromanipulator equipped with a PM-10 piezo translator (Märzhäuser Wetzler GmbH, Wetzler, Germany) and inserted at the base of the determined sensilla. Signals coming from the olfactory sensory neurons were amplified 10 times with a probe (INR-02, Syntech, Hilversum, the Netherlands), digitally converted through an IDAC-4-USB (Syntech) interface, and visualized and analysed with the software Autospike v. […]

For the next assay, the system named is CpomOR1. The assay can be described thus: Single sensillum recordings, CpomOR1 expressed in Drosophila at1 OSNs. The class given is cell-based, Cydia pomonella. The settings on record: 10 μg per stimulus.
Text: as §1, §2

In a further assay the test system is CpomOrco + OR complexes. Description: Calcium imaging of HEK293T cells expressing heteromeric CpomOrco + OR complexes. It is filed as cell-based, Cydia pomonella. The procedure: HEK293T cells were grown in HEK cell media [Dulbecco’s modified Eagle’s medium containing 10% fetal bovine serum (MP Biomedicals, Solon, OH, USA), 2.0 mM L-glutamine, and 100 μg/mL Penicillin/Streptomycin (Invitrogen)] at 37 °C and 5% CO2. To test transient expression of CpomORs for calcium imaging or patch-clamp recording experiments, 35-mm petri dishes containing semi-confluent HEK293T cells were transiently transfected. To transfect cells with CpomOrco, we used 1.0 μg of pcDNA5/TO/CpomOrco DNA. In order to promote expression of the OR[51], we used double aliquots for pcDNA5/TO/CpomOR DNAs (2.0 μg), combined with 1.0 μg of pcDNA5/TO/CpomOrco for co-transfections (CpomOrco + ORs). To report expression for calcium imaging experiments, 1.0 μg of a separate plasmid DNA [pEBFP2-Nuc, a gift from Robert Campbell (Addgene plasmid # 14893[52])] carrying the coding sequence for a blue fluorescent protein (BFP) was used. In patch-clamp recordings, 1.0 μg of a separate plasmid DNA (pXOOM, Clontech) carrying the coding sequence for a green fluorescent protein (GFP) was used to report expression. In order to report candidate OR-expressing cells, expression of both fluorescent reporter genes was under the regulation of the same promoter for CpomOR genes (CMV). Transfection DNAs were dissolved in 100 μL sterile DMEM, mixed with 3.0 μL Calfectin (SignaGen, Rockville, MD, USA) following the recommended protocol. To estimate transfection efficiency, a parallel transfection was conducted using the positive control vector pcDNA5/TO/LACZ (Invitrogen) and staining with 0.1% XGal[53]. […]
(§3) Fluorescence imaging was performed using Imaging Workbench 6 software (INDEC BioSystems, Santa Clara, CA, USA). Each cell was assigned a region of interest (ROI) and changes in fluorescence intensity within each ROI were measured and expressed as the fractional change in fluorescence intensity (dF) or in some cases as dF/F0 where F0 is the basal fluorescence level before agonist application. […] Continuous traces of multiple responses were compensated for slow drift of the baseline fluorescence when necessary. […]

For a further assay, the target named is CpomOrco (Cydia pomonella, UniProt H9A5M2). The assay can be described thus: Calcium imaging of HEK293T cells expressing homomeric CpomOrco. The class given is cell-based. The settings on record: peak amplitudes normalized to response at 1000 μM agonist, read-out: [A]1/2 half-effective concentration of agonist, calcium response. The procedure:
HEK293T cells were grown in HEK cell media [Dulbecco’s modified Eagle’s medium containing 10% fetal bovine serum (MP Biomedicals, Solon, OH, USA), 2.0 mM L-glutamine, and 100 μg/mL Penicillin/Streptomycin (Invitrogen)] at 37 °C and 5% CO2. To test transient expression of CpomORs for calcium imaging or patch-clamp recording experiments, 35-mm petri dishes containing semi-confluent HEK293T cells were transiently transfected. To transfect cells with CpomOrco, we used 1.0 μg of pcDNA5/TO/CpomOrco DNA. In order to promote expression of the OR[51], we used double aliquots for pcDNA5/TO/CpomOR DNAs (2.0 μg), combined with 1.0 μg of pcDNA5/TO/CpomOrco for co-transfections (CpomOrco + ORs). […]
as §3

Description for CpomOrco + OR3: HEK293T cells were grown in HEK cell media [Dulbecco’s modified Eagle’s medium containing 10% fetal bovine serum (MP Biomedicals, Solon, OH, USA), 2.0 mM L-glutamine, and 100 μg/mL Penicillin/Streptomycin (Invitrogen)] at 37 °C and 5% CO2. To test transient expression of CpomORs for calcium imaging or patch-clamp recording experiments, 35-mm petri dishes containing semi-confluent HEK293T cells were transiently transfected. To transfect cells with CpomOrco, we used 1.0 μg of pcDNA5/TO/CpomOrco DNA. In order to promote expression of the OR[51], we used double aliquots for pcDNA5/TO/CpomOR DNAs (2.0 μg), combined with 1.0 μg of pcDNA5/TO/CpomOrco for co-transfections (CpomOrco + ORs). […] In order to report candidate OR-expressing cells, expression of both fluorescent reporter genes was under the regulation of the same promoter for CpomOR genes (CMV). Transfection DNAs were dissolved in 100 μL sterile DMEM, mixed with 3.0 μL Calfectin (SignaGen, Rockville, MD, USA) following the recommended protocol.
Transfections were conducted overnight. HEK cell media was replaced with 1.0 mL fresh media to incubate cells at 37 °C for up to 6 h, at which point part of the cell culture was spread in the middle of a 35-mm plate as individual cells or small clusters. After 12 h of incubation at 37 °C and 5% CO2, cells were rinsed at the sides with 2.0 mL fresh HEK media. Cells were allowed to recover for at least 1 h prior to calcium imaging.
After incubation, the buffer was removed and cells were rinsed with 4.0 mL fresh HEK Ca^++ Ringer (mM: 140 NaCl, 2.0 CaCl2, 10 HEPES, pH 7.5), and placed on the stage of an inverted microscope (Olympus IX-71, Olympus Corp., Tokyo, Japan) equipped with a cooled CCD camera (ORCA R2, Hamamatsu, Hamamatsu City, Japan). Cells were continuously superfused with Ca^++ Ringer using two gravity fed perfusion contours. The stimulating contour washing the cells (~250 μL/min) was switched rapidly to the stimulus contour using a multi-channel rapid solution changer (RSC-160, Bio-Logic, Claix, France) under the software control of Clampex 9 (Molecular Devices, Sunnyvale, CA, USA).
Fluorescence imaging was performed using Imaging Workbench 6 software (INDEC BioSystems, Santa Clara, CA, USA). Each cell was assigned a region of interest (ROI) and changes in fluorescence intensity within each ROI were measured and expressed as the fractional change in fluorescence intensity (dF) or in some cases as dF/F0 where F0 is the basal fluorescence level before agonist application. […] Continuous traces of multiple responses were compensated for slow drift of the baseline fluorescence when necessary. All recordings were performed at room temperature (22–25 °C).
Compounds were diluted in either DMSO or ethanol (Sigma Aldrich) depending on their solubility properties. […]

As for `CCCCC/C=C\C=C\C(=O)OCC` [(E,Z)-ED, ethyl-(E,Z)-2,4-decadienoate], the “amplitude of the calcium response (mean of the maximum response ± SEM)” value on CpomOrco + OR3 stood at 15.07 ± 9.48 dF. The EC50 at CpomOrco + OR3 amounted to 454 ± 120 µM. Moreover, the Spike/s with CpomOR6a (replicate 1) was 2 Spike/s; in the assay on CpomOR6a (replicate 2), -2 Spike/s; with CpomOR6a (replicate 3), 8 Spike/s; with CpomOR6a (replicate 4) it was 2 Spike/s; in the assay with CpomOR6a (replicate 5), -14 Spike/s; in the assay with CpomOR6a (replicate 6), 8 Spike/s. Moreover, the Spike/s in the assay with CpomOR6a (replicate 7) is 4 Spike/s; in the assay with CpomOR6a (replicate 8), -2 Spike/s; in the assay on CpomOR6a (replicate 9), 14 Spike/s. In addition, the “minimum dose to elicit a response significantly different from the solvent” value in the assay on CpomOR3 is given as 100 ng. Further, the Spikes/s with CpomOR1 (replicate 1) is reported as -2 Spikes/s; in the assay with CpomOR1 (replicate 2), 2 Spikes/s; in the assay on CpomOR1 (replicate 3), 2 Spikes/s; in the assay on CpomOR1 (replicate 4), 2 Spikes/s; in the assay on CpomOR1 (replicate 5), 10 Spikes/s.
For the compound `CC(C)CN(C)c1nc(N)c(C(=O)N=C(N)N)nc1Cl` [MIA, 5-(N-methyl-N-isobutyl) amiloride], the “block of the VUAA3 activated calcium signal” value in the assay on CpomOrco + OR complexes (MIA 100 μM applied extracellularly, all heteromeric complexes, only partially reversible) is reported as “almost completely blocked”.
As for `CCc1ccc(NC(=O)CSc2nnc(-c3cccnc3)n2CC)cc1` [VUAA1, acetamide,N-(4-ethylphenyl)-2-[[4-ethyl-5-(3-pyridinyl)-4H-1,2,4-triazol-3-yl]thio]-], the EC50 on CpomOrco is around 520 µM; in the assay on CpomOrco + OR complexes (heteromeric complexes, peak amplitudes normalized to response at 1000 μM agonist, read-out: [A]1/2 half-effective concentration of agonist, calcium response), around 150 µM.
With `CCCCC/C=C\C=C\C(=O)OC` [(E,Z)-MD, methyl (E,Z)-2,4-decadienoate], at CpomOrco + OR3, the “amplitude of the calcium response (mean of the maximum response ± SEM)” value stood at 10.40 ± 5.91 dF and the EC50 stood at 1080 ± 113 µM. The “minimum dose to elicit a response significantly different from the solvent” value with CpomOR3 is 10000 ng.
